Ends that are not written are not given here.
Columns and labels:
[1] = test system: human adipose-derived mesenchymal stem cells (AD-MSC); test: CCK-8 assay, cytotoxicity; type: cell-based; conditions: after 7 days, peptide at different concentrations, FIG. 3 and FIG. 4
Procedure: Specifically, AD-MSC cells were seeded in 96-well plates at a density of 1.5×10^3 cells/well and cultured in Dulbecco's Modified Eagle's Medium (DMEM) supplemented with 10% FBS for 24 hours. Then, the medium was replaced with DMEM medium supplemented with 5% FBS, and Peptide-1 or Peptide-2 was treated at different concentrations, respectively. Subsequently, the medium was replaced every 3 days and Peptide-1 or Peptide-2 was treated at different concentrations, respectively. To confirm CCK-8 activity, after 7 days, CCK-8 (Dojindo, CCK-8 kit) solution was added at 1/10 volume of the culture medium, and incubated for 2 hours. The culture medium was sampled and CCK-8 activity was confirmed at a wavelength of 450 nm using a microplate reader.

[2] = test system: human adipose-derived mesenchymal stem cells (AD-MSC); test: SRB staining, cell morphology changes; type: cell-based; conditions: peptide at different concentrations, FIG. 1 and FIG. 2
Procedure: Additionally, for SRB staining, after suctioning the medium from the plate, 60 μL of 3.7% formalin was added to the 96-well plate to be stained and fixed for 1 minute. After suctioning 3.7% formalin, 70 μL of SRB staining solution (sulforhodamine B sodium salt (sigma, S9012): 0.2 g in 100 mL DDW) was added and stained. The plate was covered with aluminum foil, blocked from light, and incubated overnight at room temperature. After washing with 100 μL of 1% acetic acid using a multi-pipette, it was dried and observed under a microscope.

Row | Sequence | toxicity toward adipose-derived mesenchymal stem cells (CCK-8 activity) [1] | change in cell morphology in SRB staining [2]
1 | FCRPRNDFF [Peptide-2, FCRPRNDFF] | did not exhibit toxicity | did not show any change in cell morphology
2 | RIAFLWVRIK [Peptide-1, RIAFLWVRIK] | did not exhibit toxicity | did not show any change in cell morphology
